For assay [1], the system named is cartilage pieces of bovine metacarpophalangeal joint. As to the kind of experiment: Suppressive action to cartilage destruction: release of sGAG induced by IL-1α from cartilage pieces. In kind it is cell-based. The following applies: 25 μmol/L test substance, 2 h pretreatment, human recombinant IL-1α 3 ng/mL, 4 days at 37° C.; for inhibition at 25 µM: Bos taurus, 96 h, read-out: sGAG Releasing Suppressive Rate (%). The method, then:
Evaluation of Suppressive Action to Cartilage Destruction [Release of sGAG Induced by Interleukin-1α (IL-1α)]
(1) Incubation of Cartilage Pieces
Each four cartilage pieces of bovine metacarpophalangeal joint were placed in each well of a 48-well plate and pretreated for 2 hours with a basal medium [D-MEM (Dulbecco's Modified Eagle Medium) containing 2 mmol/L of glutamine, 25 mmol/L of Hepes, 100 μg/mL of streptomycin, 100 IU/mL of penicillin and 5.6 μg/mL of amphotericin B] containing 25 μmol/L of a test substance. Human recombinant IL-1α (3 ng/mL) was added thereto followed by incubating at 37° C. for 4 days in a CO2 incubator set at 5 vol % of CO2. Culture supernatant and cartilage pieces were recovered and stored by freezing until the measurement for each of them.
(2) Measurement of the Amount of sGAG and Calculation of the Suppressive Rate for the Release of sGAG
The recovered cartilage pieces were treated with a papain solution [containing 1 mg/mL of papain, 100 mmol/L of sodium phosphate (pH 6.5), 5 mmol/L of L-cysteine and 5 mmol/L of disodium ethylenediaminetetraacetate (EDTA)] at 65° C. for about 16 hours to solubilize. Amount of sGAG in the resulting extract was measured using an sGAG Alcian Blue Binding Kit (Wieslab AB) which is a quantitative kit to which a Alcian blue staining protocol is applied. sGAG in the culture supernatant after the incubation was measured without subjecting to a papain treatment. Each releasing rate of sGAG was determined by the following formula to calculate the suppressive rate for the release of sGAG. Releasing rate (%) of sGAG={(Total sGAG amount in the culture supernatant)/[(Total sGAG amount in the culture supernatant)+(Total sGAG amount in the cartilage pieces)]}×100 Suppressive rate (%) for release of sGAG={[Releasing rate of sGAG (IL-1α stimulation)−Releasing rate of sGAG (Test substance)]/[Releasing rate of sGAG (IL-1α stimulation)−Releasing rate of sGAG (Non-stimulation)]}×100

The subject of a further assay is HFLS-OA cells. As to the kind of experiment: Suppressive action to TNF-α-induced proliferation of synovial cells (HFLS-OA), BrdU ELISA. The following applies: 200 μmol/L test substance, human recombinant TNF-α 10 ng/mL, 5 days, BrdU incorporation increase by TNF-α = 100%; for activity at 200 µM: Synovial cell, 120 h, read-out: Synovial Cell Proliferation Rate (%). In kind it is cell-based. The protocol: Evaluation of Suppressive Action to Cell Proliferation of Synovial Cells (HFLS-OA) Derived from Tissues of Human Osteoarthritis
(1) Incubation of HFLS-OA Cells
HFLS-OA cells were sown onto a 96-well plate so as to make them 10^4 cells/well/100 μL in a D-MEM containing 2 vol % of fetal bovine serum (FBS) and incubated for 24 hours. A test substance (200 μmol/L) and human recombinant TNF-α (10 ng/mL) were added thereto followed by incubating for 5 days.
(2) Measurement of Action to HFLS-OA Cell Proliferation
A kit [Cell Proliferation ELISA, BrdU (colorimetric) (Roche Diagnostics)] was used and measurement was conducted according to the protocol attached to the kit. HFLS-OA cells were incubated for 3 days and 10 μL of 5-bromo-2′-deoxyuridine (BrdU) dissolved in a phosphate buffered saline (PBS) (100 μmol/L, pH 7.4) was added to each well followed by incubating for 48 hours more. After the culture supernatant was removed from each well, 200 μL/well of an immobilization/denaturation solution was added thereto and the mixture was allowed to stand for 30 minutes whereby immobilization of the cells and denaturation of DNA were conducted. After the immobilization/denaturation solution was completely removed, 100 μL of a peroxidase-labeled anti-BrdU antibody solution was added thereto and the mixture was made to react at room temperature for 90 minutes. After washing with PBS, 100 μL of a substrate liquid (tetramethylbenzidine) was added to each well and the absorbance was measured. A cell proliferation rate upon addition of each test substance was calculated where an increase in incorporation of BrdU upon addition of TNF-α was defined as 100% of cell proliferation rate.

For `O=c1oc2c(OS(=O)(=O)c3ccc(C(F)(F)F)cc3)cccc2cc1NS(=O)(=O)c1cccc(Br)c1` [Compound 58, 3-[(3-Bromophenyl)sulfonylamino]-2-oxochromen-8-yl 4-(trifluoromethyl)benzenesulfonate], the inhibition at 25 µM in assay [1] is 129%. Further, in the assay with HFLS-OA cells, the activity at 200 µM was -42.8%.
The corresponding values for `O=c1oc2c(OS(=O)(=O)c3cccc([N+](=O)[O-])c3)cccc2cc1NS(=O)(=O)c1cccc(C(F)(F)F)c1` [Compound 50, 2-Oxo-3-[[3-(trifluoromethyl)phenyl]sulfonylamino]-chromen-8-yl 3-nitrobenzenesulfonate] are 163% and -46.4%.
For `O=c1oc2c(OS(=O)(=O)c3cccc([N+](=O)[O-])c3)cccc2cc1NS(=O)(=O)c1cccc(Br)c1` [Compound 54, 3-[(3-Bromophenyl)sulfonylamino]-2-oxochromen-8-yl 3-nitrobenzenesulfonate], the inhibition at 25 µM in assay [1] came to 136%. In addition, the activity at 200 µM in the assay on HFLS-OA cells is -44.4%.
Take `O=c1oc2c(OS(=O)(=O)c3cccc(C(F)(F)F)c3)cccc2cc1NS(=O)(=O)c1ccc(C(F)(F)F)cc1` [Compound 68, 2-Oxo-3-[[4-(trifluoromethyl)phenyl]sulfonylamino]-chromen-8-yl 3-(trifluoromethyl)benzenesulfonate]: the inhibition at 25 µM in assay [1] was determined as 124%. In the assay on HFLS-OA cells, the activity at 200 µM is -42.8%.
`N#Cc1cccc(S(=O)(=O)Nc2cc3cccc(OS(=O)(=O)c4ccccc4)c3oc2=O)c1` [Compound 22, 3-[(3-Cyanophenyl)sulfonylamino]-2-oxochromen-8-yl benzenesulfonate]: the inhibition at 25 µM in assay [1] turned out to be 92%. For the same compound, the activity at 200 µM in the assay with HFLS-OA cells was -38.4%.
For `O=c1oc2c(OS(=O)(=O)c3cccs3)cccc2cc1NS(=O)(=O)c1cccc([N+](=O)[O-])c1` [Compound 43, 3-[(3-Nitrophenyl)sulfonylamino]-2-oxochromen-8-yl thiophene-2-sulfonate] the same measures were 107% and -30.3%.
As for `O=c1oc2c(OS(=O)(=O)c3cccc(Br)c3)cccc2cc1NS(=O)(=O)c1cccnc1` [Compound 38, 2-Oxo-3-(3-pyridylsulfonylamino)chromen-8-yl 3-bromobenzenesulfonate], in assay [1], the inhibition at 25 µM was 67%. Also, the activity at 200 µM in the assay on HFLS-OA cells was -31.2%.
The corresponding values for `CCOC(=O)c1ccc(S(=O)(=O)Oc2cccc3cc(NS(=O)(=O)c4cccc([N+](=O)[O-])c4)c(=O)oc23)cc1` [Compound 48, Ethyl 4-[3-[(3-nitrophenyl)sulfonylamino]-2-oxochromen-8-yl]oxysulfonylbenzoate] are 122% and -34.9%.
The corresponding values for `O=c1oc2c(OS(=O)(=O)c3cccc([N+](=O)[O-])c3)cccc2cc1NS(=O)(=O)c1cccs1` [Compound 44, 2-Oxo-3-(2-thienylsulfonylamino)chromen-8-yl 3-nitrobenzenesulfonate] are 118% and -31.5%.
The corresponding values for `O=c1oc2c(OS(=O)(=O)c3ccccc3)cccc2cc1NS(=O)(=O)c1cccc(C(F)(F)F)c1` [Compound 28, 2-Oxo-3-[[3-(trifluoromethyl)phenyl]sulfonylamino]-chromen-8-yl benzenesulfonate] are 140% and -33.7%.
As to `O=c1oc2c(OS(=O)(=O)c3ccc(C(F)(F)F)cc3)cccc2cc1NS(=O)(=O)c1cccc([N+](=O)[O-])c1` [Compound 69, 3-[(3-Nitrophenyl)sulfonylamino]-2-oxochromen-8-yl 4-(trifluoromethyl)benzenesulfonate], in assay [1], the inhibition at 25 µM stood at 126%. In the assay on HFLS-OA cells, the activity at 200 µM is -40.6%.
On to `N#Cc1ccc(S(=O)(=O)Oc2cccc3cc(NS(=O)(=O)c4ccccc4)c(=O)oc23)cc1` [Compound 20, 3-(Benzenesulfonylamino)-2-oxochromen-8-yl 4-cyanobenzenesulfonate], for which the inhibition at 25 µM in assay [1] came out at 35%. The activity at 200 µM in the assay with HFLS-OA cells is -42.1%.
The corresponding values for `O=c1oc2c(OS(=O)(=O)c3ccc(-c4ccccc4)cc3)cccc2cc1NS(=O)(=O)c1cccc(Br)c1` [Compound 65, 3-[(3-Bromophenyl)sulfonylamino]-2-oxochromen-8-yl 4-phenylbenzenesulfonate] are 115% and -45.9%.
For `O=c1oc2c(OS(=O)(=O)c3cccc([N+](=O)[O-])c3)cccc2cc1NS(=O)(=O)c1ccc(C(F)(F)F)cc1` [Compound 67, 2-Oxo-3-[[4-(trifluoromethyl)phenyl]sulfonylamino]-chromen-8-yl 3-nitrobenzenesulfonate] the same measures were 115% and -38.9%.
For `O=c1oc2c(OS(=O)(=O)c3ccc(-c4ccccc4)cc3)cccc2cc1NS(=O)(=O)c1ccc(-c2ccccc2)cc1` [Compound 66, 2-Oxo-3-[(4-phenylphenyl]sulfonylamino]chromen-8-yl 4-phenylbenzenesulfonate] the same measures were 38% and -37.9%.
On to `CS(=O)(=O)Oc1cccc2cc(NS(=O)(=O)c3cccc(Br)c3)c(=O)oc12` [Compound 37, 3-[(3-Bromophenyl)sulfonylamino)]-2-oxochromen-8-yl methanesulfonate], for which the “sGAG Releasing Suppressive Rate (%)” value in assay [1] stood at 17%. In addition, the “Synovial Cell Proliferation Rate (%)” value with HFLS-OA cells is −22.6%.
On to `O=c1oc2c(OS(=O)(=O)c3ccc(C(F)(F)F)cc3)cccc2cc1NS(=O)(=O)c1ccc(-c2ccccc2)cc1` [Compound 70, 2-Oxo-3-[(4-phenylphenyl)sulfonylamino]chromen-8-yl 4-(trifluoromethyl)benzenesulfonate], for which the inhibition at 25 µM in assay [1] came out at 103%. Further, in the assay on HFLS-OA cells, the activity at 200 µM is -39%.
Regarding `O=c1oc2c(OS(=O)(=O)c3ccc(-c4ccccc4)cc3)cccc2cc1NS(=O)(=O)c1cccc(C(F)(F)F)c1` [Compound 63, 2-Oxo-3-[[3-(trifluoromethyl)phenyl]sulfonylamino]-chromen-8-yl 4-phenylbenzenesulfonate], the inhibition at 25 µM in assay [1] came to 137%. Further, in the assay with HFLS-OA cells, the activity at 200 µM is -47.9%.
On to `O=c1oc2c(OS(=O)(=O)c3cccc(Br)c3)cccc2cc1NS(=O)(=O)c1cccc(Br)c1` [Compound 32, 3-[(3-Bromophenyl)sulfonylamino]-2-oxochromen-8-yl 3-bromobenzenesulfonate], for which the inhibition at 25 µM in assay [1] amounted to 202%. In addition, the activity at 200 µM with HFLS-OA cells is -41.1%.
In the case of `O=c1oc2c(OS(=O)(=O)c3ccccc3)cccc2cc1NS(=O)(=O)c1ccc(C(F)(F)F)cc1` [Compound 27, 2-Oxo-3-[[4-(trifluoromethyl)phenyl]sulfonylamino]-chromen-8-yl benzenesulfonate], the inhibition at 25 µM in assay [1] is 162%. The activity at 200 µM with HFLS-OA cells is -36.3%.
For the compound `O=c1oc2c(OS(=O)(=O)c3cccc(Br)c3)cccc2cc1NS(=O)(=O)c1cccc(C(F)(F)F)c1` [Compound 60, 2-Oxo-3-[[3-(trifluoromethyl)phenyl]sulfonylamino]-chromen-8-yl 3-bromobenzenesulfonate], the inhibition at 25 µM in assay [1] was determined as 138%. Further, the activity at 200 µM in the assay with HFLS-OA cells is -44.4%.
